Measurements from ChEMBL document CHEMBL1126181, “New nonpeptide angiotensin II receptor antagonists. 1. Synthesis, biological properties, and structure-activity relationships of 2-alkyl benzimidazole derivatives” (J Med Chem, 1992).

biological target: Type-1 angiotensin II receptor (Rattus norvegicus) (UniProt P25095); experiment: The compound was tested for Angiotensin II (AII) antagonist activity in vivo in an […], normotensive rat model upon intravenous administration
Sequence (P25095 whole entry, looked up, the tested form may be a part): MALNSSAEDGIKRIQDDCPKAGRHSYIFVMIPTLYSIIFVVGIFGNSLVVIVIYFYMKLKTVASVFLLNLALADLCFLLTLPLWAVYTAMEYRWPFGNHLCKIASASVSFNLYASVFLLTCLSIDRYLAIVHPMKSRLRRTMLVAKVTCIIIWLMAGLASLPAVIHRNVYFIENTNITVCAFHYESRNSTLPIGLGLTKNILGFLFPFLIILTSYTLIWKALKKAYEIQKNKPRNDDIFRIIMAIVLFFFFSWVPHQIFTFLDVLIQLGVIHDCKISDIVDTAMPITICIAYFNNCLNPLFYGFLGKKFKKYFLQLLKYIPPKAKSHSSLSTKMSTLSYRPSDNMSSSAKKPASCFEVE

| SMILES | ED50 [mg/kg] |
| --- | --- |
| CCCCc1nc2ccccc2n1Cc1ccc(C(=O)O)cc1Br | 11.1 |
| CCCCc1nc2ccccc2n1Cc1ccc(C(=O)O)cc1 | 12.6 |
| CCCCc1nc2cc(F)ccc2n1Cc1ccc(C(=O)O)cc1 | 9.1 |
| CCCCc1nc2ccccc2n1Cc1ccc(C(=O)O)c(Br)c1 | 5 |
| CCCCCCc1nc2ccccc2n1Cc1ccc(C(=O)O)cc1 | > 20 |
| CCCCc1nc2ccccc2n1Cc1ccc(C(=O)O)cc1OC | 16.1 |

biological target: Type-1 angiotensin II receptor (Rattus norvegicus) (UniProt P25095); experiment: The compound was tested for Angiotensin II (AII) antagonist activity in vivo in an AII infused, normotensive rat model upon intravenous administration

| SMILES | ED50 [mg/kg] |
| --- | --- |
| CCCCc1nc2ccccc2n1Cc1ccc(-c2ccccc2-c2nn[nH]n2)cc1 | 5.2 |
